Laboratory results as given in patent publication US20150282506A1, “FLAVOUR ADDITIVES” (MARS, INCORPORATED, priority 2012, published 2015).

test system: T1R1/T1R3 umami receptor; experiment: In vitro screening of amino acids for ability to activate the T1R1/T1R3 receptor in the presence of 0.2 mM IMP; type: cell-based; details: FIG. 10

With `N=C(N)NCCC[C@H](N)C(=O)O` [arginine] as the compound, how does the “activation of the T1R1/T1R3 umami receptor” value (shortened to “activation”) read?
Its value is “do not activate”.

With `N[C@@H](CC(=O)O)C(=O)O` [aspartic acid] as the compound, how does the “activation” value read?
Its value is “do not activate”.

How did the “activation” value turn out when `N[C@@H](CSSC[C@H](N)C(=O)O)C(=O)O` [cystine] was run?
The value was “do not activate”.

How did the “activation” value turn out when `N[C@@H](CCC(=O)O)C(=O)O` [glutamic acid] was run?
Its value is “do not activate”.

For `NC(=O)CC[C@H](N)C(=O)O` [glutamine], which “activation” value is on record?
Its value is “do not activate”.

For `O=C(O)[C@@H]1C[C@@H](O)CN1` [hydroxyproline], which “activation” value is on record?
The value was “do not activate”.

`CC[C@H](C)[C@H](N)C(=O)O` [isoleucine] was tested. Which “activation” value did it give?
The value was “do not activate”.

Which “activation” value does the source give for `NCCCC[C@H](N)C(=O)O` [lysine] here?
The value was “do not activate”.

Which “activation” value does the source give for `NCCC[C@H](N)C(=O)O` [ornithine] here?
Its value is “do not activate”.

Which “activation” value does the source give for `O=C(O)[C@@H]1CCCN1` [proline] here?
The value was “do not activate”.

`NCCS(=O)(=O)O` [taurine] was tested. Which “activation” value did it give?
Its value is “do not activate”.

`C[C@@H](O)[C@H](N)C(=O)O` [threonine] was tested. Which “activation” value did it give?
The value was “do not activate”.

How did the “activation” value turn out when `CC(C)[C@H](N)C(=O)O` [valine] was run?
The value was “do not activate”.
